Data as given in patent US7071161B2, “Variants of corticotropin releasing hormone receptor Type 1 and uses thereof” (The University of Tennessee Research Corporation, priority 2001, dated 2006).
Blank lines part the entries; values can stand above or below the molecule they belong to.

What was measured:
[1] = system: CRH-R1 mRNA; experiment: CRH-R1 isoform expression by nested RT-PCR in treated SKMEL188 melanoma cells; assay type: cell-based; settings: human melanoma cells SKMEL188; 24 hours; result in words
Protocol: (§1) In some experiments, SKMEL188, HaCaT and C4-1 cells were also treated with TPA, forskolin or a mixture of IBMX (3-isobutyl-1-methylxanthine) and dbcAMP (N6, 2′-O-dibutyryladenosine 3′:5′-cyclic monophosphate sodium) (all from Sigma). Briefly, the cells were transferred to 75 cm^2 flasks ( 10^6 cells/flask) and cultured for 24 hours in standard culture medium. Then the following compounds were added to the separate cultures: TPA (200 nM), forskolin (10^−5 M), IBMX (5×10^−4 M), and dbcAMP (10^−3 M). Controls were represented by untreated cultures. The cells were incubated for 24 hours, detached, collected by centrifugation, and dissolved in RNA isolation solution (Trizol reagent).
(§2) Total RNA was extracted using a Trizol isolation kit (Gibco-BRL, Gaithersburg, Md.). The synthesis of first-strand cDNA was performed using the Superscript preamplification system (Gibco-BRL). Five μg of total RNA per reaction was reverse transcribed using oligo(dT) as the primer.
(§3) Nested PCR was used to detect different CRH-R1 isoforms. The first round of amplification of the human CRH-R1 fragment spanning exons 2–7 was conducted using 2 μl of cDNA and primers P110: 5′-[…]-3′ (sense) (SEQ ID No. 15) and P111: 5′-[…]-3′ (antisense) (SEQ ID No. 16). An aliquot of the PCR mixture from the first round of amplification was transferred to a new tube, and a second round of PCR was conducted. […]

[2] = system: CRH-R1 mRNA; experiment: CRH-R1 isoform expression by nested RT-PCR in treated HaCaT immortalized keratinocytes; assay type: cell-based, human; settings: 24 hours, result in words
Protocol: as §1, §2, §3

[3] = target: T1, CRH-R1α (Homo sapiens, UniProt P34998); experiment: cAMP accumulation in CRF or urocortin-stimulated COS cells cotransfected with CRH-R1α and isoform e or h; assay type: cell-based; settings: coexpression of the isoform with CRH-R1α, FIG. 7C
T1 construct: expressed in transfected cells; host or cells: COS cells, transient transfection with pCRFR1α
T1 sequence (P34998 24-415): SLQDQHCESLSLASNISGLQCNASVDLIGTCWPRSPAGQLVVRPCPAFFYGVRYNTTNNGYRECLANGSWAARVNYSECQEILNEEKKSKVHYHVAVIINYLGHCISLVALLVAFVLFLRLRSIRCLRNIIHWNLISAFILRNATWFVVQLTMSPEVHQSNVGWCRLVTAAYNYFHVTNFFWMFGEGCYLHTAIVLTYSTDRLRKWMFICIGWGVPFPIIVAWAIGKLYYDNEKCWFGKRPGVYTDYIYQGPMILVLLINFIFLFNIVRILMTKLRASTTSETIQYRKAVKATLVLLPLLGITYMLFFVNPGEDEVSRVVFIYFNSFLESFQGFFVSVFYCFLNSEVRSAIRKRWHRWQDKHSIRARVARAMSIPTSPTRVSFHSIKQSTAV
Protocol: COS cells were propagated in DMEM medium (GIBCO) supplemented with 10% Fetal Bovine serum and antibiotics (GIBCO). Ten thousand cells were routinely transfected in each well of opaque 96-well plate (Packard) by Lipophectamine (Invitrogen, Carlsbad, Calif.) according to the manufacturer's protocol.
Receptor isoforms e and h were tested for their ability to produce soluble forms of the CRH receptor that would affect the activity of the most prevalent CRH-R1α isoform. To allow detection by immunoblotting, a cDNA for the V5 protein was attached to the cDNA for the isoforms in the constructs. The constructs were thus transfected into COS cells and tested as to whether the isoform messages were translatable, and whether cotransfection of CRH-R1α with CRH-R1e or h affects the activity of CRH-R1α.
Cyclic AMP concentration was measured by a cAMP functional assay kit (Packard BioScience, Meriden, Conn.). Stimulated cells were washed 3 times by PBS and incubated for 1 hour in 25 μl of lysis buffer at room temperature. The signal was measured using a Fusion α instrument (Packard BioScience), and cAMP concentrations were recalculated from the standard curve.

Molecule: CCCCCCCCCCCCCC(=O)O[C@@H]1[C@@H](C)[C@@]2(O)[C@@H](C=C(CO)C[C@]3(O)C(=O)C(C)=C[C@@H]23)[C@@H]2C(C)(C)[C@]12OC(C)=O [TPA, phorbol 12-myristate 13-acetate]
- change of CRH-R1 splicing pattern versus untreated control [1]: shifted the CRH-R1 splicing pattern from the CRH-R1d to the CRH-R1α isoform
- change of CRH-R1 splicing pattern versus untreated control [2]: induced insertion of a 110 bp fragment between exons 4 and 5 of CRH-R1

- CRH or urocortin-stimulated cAMP accumulation mediated by CRF-R1α [3]: inhibits
- CRH or urocortin-stimulated cAMP accumulation mediated by CRF-R1α ([3]; listed as CRF-R1h): stimulates
B1: CRH-R1h: human CRH receptor type 1 isoform with cryptic exon between exons 4 and 5; truncated protein with CRH-binding domain only (protein, listed as Homo sapiens)
chain: MGGHPQLRLVKALLLLGLNPVSASLQDQHCESLSLASNISGLQCNASVDLIGTCWPRSPAGQLVVRPCPAFFYGVRYNTTNNGYRECLANGSWAARVNYSECQEILNEEEPGTQAQPGRAHRGGT
modifications: amino acid sequence of human CRH-R1h gene GenBank Accession No. AF374231
